# Assays:
# [1] = test system: Beetroot (RNA, aptamer) GCGCCGGUUAGGCAGAGGUGGGUGGUGUGGAGGAGUAUCUGUCCGGCGC; test: ITC; conditions: 150 mM K+, 5 mM Mg2+; 20 mM MOPS-KOH pH 7.0, 25 °C (methods; text gives 21 °C); two equivalent sites per dimer; per site
# [2] = test system: Beetroot (RNA, aptamer) GCGCCGGUUAGGCAGAGGUGGGUGGUGUGGAGGAGUAUCUGUCCGGCGC; test: fluorescence titration; conditions: 150 mM K+, 5 mM Mg2+; 20 mM MOPS-KOH pH 7.0; RNA titrated into dye
# [3] = test system: A16U + U38G (Wobble Beetroot) (RNA, aptamer) GCGCCGGUUAGGCAGUGGUGGGUGGUGUGGAGGAGUAGCUGUCCGGCGC; test: fluorescence titration; conditions: 150 mM K+, 5 mM Mg2+; 20 mM MOPS-KOH pH 7.0; RNA titrated into dye
# [4] = test system: A31C (RNA, aptamer) GCGCCGGUUAGGCAGAGGUGGGUGGUGUGGCGGAGUAUCUGUCCGGCGC; test: fluorescence activation; conditions: 150 mM K+, 5 mM Mg2+; 20 mM MOPS-KOH pH 7.0; fluorescence reduced at least 50% relative to wild-type
# [5] = test system: A31U (RNA, aptamer) GCGCCGGUUAGGCAGAGGUGGGUGGUGUGGUGGAGUAUCUGUCCGGCGC; test: fluorescence activation; conditions: 150 mM K+, 5 mM Mg2+; 20 mM MOPS-KOH pH 7.0; fluorescence reduced at least 50% relative to wild-type
# [6] = test system: A16C + U38G (RNA, aptamer) GCGCCGGUUAGGCAGCGGUGGGUGGUGUGGAGGAGUAGCUGUCCGGCGC; test: fluorescence activation; conditions: 150 mM K+, 5 mM Mg2+; 20 mM MOPS-KOH pH 7.0; considerably less fluorescent than wild-type
# [7] = test system: A16U + U38A (RNA, aptamer) GCGCCGGUUAGGCAGUGGUGGGUGGUGUGGAGGAGUAACUGUCCGGCGC; test: fluorescence activation; conditions: 150 mM K+, 5 mM Mg2+; 20 mM MOPS-KOH pH 7.0; considerably less fluorescent than wild-type
# [8] = test system: J1/2 deletion (RNA, aptamer) GCGCCGGGCAGAGGUGGGUGGUGUGGAGGAGUAUCUGUCCGGCGC; test: fluorescence activation; conditions: 150 mM K+, 5 mM Mg2+; 20 mM MOPS-KOH pH 7.0; fluorescence comparable to wild-type
# [9] = test system: F30_Beetroot (RNA, aptamer) GGAGCCAUGUGUAUGUGGUCCGCGCCGGUUAGGCAGAGGUGGGUGGUGUGGAGGAGUAUCUGUCCGGCGCGGACCACAUACUCUGAUGAUCCUUCGGGAUCAUUCAUGGCUCC; test: fluorescence emission spectrum; conditions: 150 mM K+, 5 mM Mg2+; 20 mM MOPS-KOH pH 7
# [10] = test system: F30-wild-type Beetroot / Wobble Beetroot heterodimer (RNA, aptamer) GGAGCCAUGUGUAUGUGGUCCGCGCCGGUUAGGCAGAGGUGGGUGGUGUGGAGGAGUAUCUGUCCGGCGCGGACCACAUACUCUGAUGAUCCUUCGGGAUCAUUCAUGGCUCC/GCGCCGGUUAGGCAGUGGUGGGUGGUGUGGAGGAGUAGCUGUCCGGCGC; test: fluorescence emission spectrum; conditions: 150 mM K+, 5 mM Mg2+; 20 mM MOPS-KOH pH 7
# [11] = test system: Beetroot (RNA, aptamer) GCGCCGGUUAGGCAGAGGUGGGUGGUGUGGAGGAGUAUCUGUCCGGCGC; test: co-crystal structure, 2.1 Å; fluorescence activation; conditions: K+
SMILES,Kd [1],Kd [2],Kd [3],binding [4],binding [5],binding [6],binding [7],binding [8],binding [9],binding [10],binding [11]
COC(=O)/C=C/C1=NC(=C\c2cc(F)c(O)c(F)c2)/C(=O)N1C,0.47 ± 0.18 µM,1.55 µM,4.9 ± 1.2 µM,yes,yes,yes,yes,yes,yes,yes,–
CN1C(=O)/C(=C/c2cc(F)c(O)c(F)c2)N=C1/C=N/O,–,9.3 ± 1.5 µM,7.6 ± 0.8 µM,–,–,–,–,–,–,yes,–
Cc1ccc2c(c1)sc(-c1ccc(N(C)C)cc1)[n+]2C,–,–,–,–,–,–,–,–,–,–,yes

# Reference: paper PMC10205801 (2023)
